In patent US10717716B2, “1,3,4-oxadiazole derivative compounds as histone deacetylase 6 inhibitor, and the pharmaceutical composition comprising the same” (Chong Kun Dang Pharmaceutical Corp., priority 2015, dated 2020):

Biological target: T1, human recombinant HDAC6 (Homo sapiens, UniProt Q9UBN7)
T1 construct: purchased Calbiochem 382180
T1 sequence (Q9UBN7 1-1215): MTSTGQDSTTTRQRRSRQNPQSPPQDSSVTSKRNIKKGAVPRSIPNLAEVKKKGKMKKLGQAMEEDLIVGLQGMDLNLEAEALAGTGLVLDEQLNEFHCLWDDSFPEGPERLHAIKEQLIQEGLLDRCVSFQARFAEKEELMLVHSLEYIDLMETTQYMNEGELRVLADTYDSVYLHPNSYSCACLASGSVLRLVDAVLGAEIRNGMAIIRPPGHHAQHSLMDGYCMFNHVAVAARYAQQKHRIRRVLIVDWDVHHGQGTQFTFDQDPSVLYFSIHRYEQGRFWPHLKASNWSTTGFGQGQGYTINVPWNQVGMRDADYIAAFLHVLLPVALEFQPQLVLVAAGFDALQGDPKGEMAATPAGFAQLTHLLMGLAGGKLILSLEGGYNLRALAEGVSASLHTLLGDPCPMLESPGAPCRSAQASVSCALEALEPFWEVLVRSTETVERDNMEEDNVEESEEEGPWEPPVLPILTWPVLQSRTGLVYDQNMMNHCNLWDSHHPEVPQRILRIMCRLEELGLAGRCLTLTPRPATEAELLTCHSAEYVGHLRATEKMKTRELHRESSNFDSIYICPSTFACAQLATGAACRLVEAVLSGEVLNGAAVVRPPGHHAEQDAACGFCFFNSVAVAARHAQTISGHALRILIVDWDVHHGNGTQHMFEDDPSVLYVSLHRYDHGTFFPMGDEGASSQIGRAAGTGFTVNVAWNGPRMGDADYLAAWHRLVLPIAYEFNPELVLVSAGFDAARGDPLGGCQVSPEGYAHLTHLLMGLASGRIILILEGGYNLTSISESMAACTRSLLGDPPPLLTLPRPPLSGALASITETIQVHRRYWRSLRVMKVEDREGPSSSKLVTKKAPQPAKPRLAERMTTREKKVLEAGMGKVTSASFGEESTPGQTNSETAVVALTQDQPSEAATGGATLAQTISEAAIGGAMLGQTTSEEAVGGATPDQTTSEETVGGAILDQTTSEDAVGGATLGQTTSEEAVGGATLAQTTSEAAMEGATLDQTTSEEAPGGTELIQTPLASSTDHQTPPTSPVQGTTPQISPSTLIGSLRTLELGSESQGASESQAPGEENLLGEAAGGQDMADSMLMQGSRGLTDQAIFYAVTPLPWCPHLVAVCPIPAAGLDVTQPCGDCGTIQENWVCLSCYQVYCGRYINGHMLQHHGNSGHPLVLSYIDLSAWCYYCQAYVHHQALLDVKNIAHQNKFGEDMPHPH
Experiment: HDAC6 enzyme activity inhibition assay (HDAC Fluorimetric Drug Discovery Kit)
Assay type: biochemical
Settings: for HDAC6 selectivity (fold): HDAC6 over HDAC1; for IC50: human recombinant HDAC6, same protocol as HDAC1, read-out: HDAC6
Description: In order to examine the HDAC6 selectivity of the compounds of formula I of the present invention by HDAC1 and HDAC6 enzymatic activity inhibition assays, an experiment was performed using a conventional substance as a control.
HDAC enzyme activity was measured using a HDAC Fluorimetric Drug Discovery Kit (BML-AK511, 516, Enzo Life Science). For the HDAC1 enzyme activity test, human recombinant HDAC1 (BML-SE456) was used as an enzyme source, and Fluor de Lys®-“SIRT1 (BNL-KI177) was used as a substrate. A 5-fold dilution of the compound was seeded into a 96-well plate, and then 0.3 μg of the enzyme and 10 μM of the substrate were added to each well of the plate and allowed to react at 30° C. for 60 minutes. Then, Fluor de Lys®-Developer II (BML-KI176) was added thereto and allowed to react for 30 minutes, after which the fluorescence value (Ex 360, Em 460) was measured using a multi-plate reader (Flexstation 3, Molecular Device). The HDAC6 enzyme was tested using human recombinant HDAC6 (382180) (Calbiochem) according to the same protocol as the HDAC1 enzyme activity test method. Based on the resulting values, each IC5, value was calculated using GraphPad Prism4.0 program.

COc1cccc(N(Cc2ccc(-c3nnc(C(F)(F)F)o3)cc2F)C(=O)N2CCS(=O)(=O)CC2)c1 [Compound 21481, N-(2-fluoro-4-(5-(trifluoromethyl)-1,3,4-oxadiazol-2-yl)benzyl)-N-(3-methoxyphenyl)thiomorpholine-4-carboxamide 1,1-dioxide]
HDAC6 selectivity (fold): 172 fold
IC50: 58 nM

Cc1nnc(N(Cc2ccc(-c3nnc(C(F)F)o3)cc2F)C(=O)N2CCS(=O)(=O)CC2)s1 [Compound 21979, N-(4-(5-(difluoromethyl)-1,3,4-oxadiazol-2-yl)-2-fluorobenzyl)-N-(5-methyl-1,3,4-thiadiazol-2-yl)thiomorpholine-4-carboxamide 1,1-dioxide]
HDAC6 selectivity (fold): 15 fold
IC50: 669 nM

CN(C)[C@H]1CCN(C(=O)N(Cc2ccc(-c3nnc(C(F)F)o3)cn2)c2ccc(F)c(Cl)c2)C1 [Compound 21601, (S)—N-(3-chloro-4-fluorophenyl)-N-((5-(5-(difluoromethyl)-1,3,4-oxadiazol-2-yl)pyridin-2-yl)methyl)-3-(dimethylamino)pyrrolidine-1-carboxamide]
HDAC6 selectivity (fold): 192 fold
IC50: 52 nM

CCN1CCN(C(=O)N(Cc2ccc(-c3nnc(C(F)F)o3)cc2F)c2cccc(OC)c2)CC1 [Compound 21890, N-(4-(5-(Difluoromethyl)-1,3,4-oxadiazol-2-yl)-2-fluorobenzyl)-4-ethyl-N-(3-methoxyphenyl)piperazine-1-carboxamide]
HDAC6 selectivity (fold): 185 fold
IC50: 54 nM

O=C(N1CCS(=O)(=O)CC1)N(Cc1ccc(-c2nnc(C(F)(F)F)o2)cc1Cl)c1ccccc1 [Compound 21410, N-(2-chloro-4-(5-(trifluoromethyl)-1,3,4-oxadiazol-2-yl)benzyl)-N-phenylthiomorpholine-4-carboxamide 1,1-dioxide]
HDAC6 selectivity (fold): 12 fold
IC50: 840 nM

CCNC(=O)N(Cc1ccc(-c2nnc(C(F)(F)F)o2)cc1)c1ccccc1 [Compound 21353, 3-Ethyl-1-phenyl-1-(4-(5-(trifluoromethyl)-1,3,4-oxadiazol-2-yl)benzyl)urea]
HDAC6 selectivity (fold): 14 fold
IC50: 720 nM

O=C(N1CCOCC1)N(Cc1ccc(-c2nnc(C(F)(F)F)o2)cc1Cl)c1ccccc1 [Compound 21429, N-(2-chloro-4-(5-(trifluoromethyl)-1,3,4-oxadiazol-2-yl)benzyl)-N-phenylmorpholine-4-carboxamide]
HDAC6 selectivity (fold): 5 fold
IC50: 2080 nM

O=C(N1CCN(CCO)CC1)N(Cc1ccc(-c2nnc(C(F)(F)F)o2)cc1)c1ccccc1 [Compound 21384, 4-(2-Hydroxyethyl)-N-phenyl-N-(4-(5-(trifluoromethyl)-1,3,4-oxadiazol-2-yl)benzyl)piperazine-1-carboxamide]
HDAC6 selectivity (fold): 127 fold
IC50: 79 nM

CC(C)(C)CN1CCN(Cc2ccc(N(Cc3ccc(-c4nnc(C(F)F)o4)cc3F)C(=O)N3CCS(=O)(=O)CC3)cc2)CC1 [Compound 21895, N-(4-(5-(difluoromethyl)-1,3,4-oxadiazol-2-yl)-2-fluorobenzyl)-N-(4-((4-neopentylpiperazin-1-yl)methyl)phenyl)thiomorpholine-4-carboxamide 1,1-dioxide]
HDAC6 selectivity (fold): 42 fold
IC50: 236 nM

O=C(N1CCS(=O)(=O)CC1)N(Cc1ccc(-c2nnc(C(F)F)o2)cc1F)c1ccsc1 [Compound 22021, N-(4-(5-(Difluoromethyl)-1,3,4-oxadiazol-2-yl)-2-fluorobenzyl)-N-(thiophen-3-yl)thiomorpholine-4-carboxamide 1,1-dioxide]
HDAC6 selectivity (fold): 101 fold
IC50: 99 nM

CN1CCN(C(=O)N(Cc2ccc(-c3nnc(C(F)F)o3)cc2F)c2ccccc2)CC1 [Compound 21378, N-(4-(5-(difluoromethyl)-1,3,4-oxadiazol-2-yl)-2-fluorobenzyl)-4-methyl-N-phenylpiperazine-1-carboxamide]
HDAC6 selectivity (fold): 500 fold
IC50: 20 nM

CCN1CCN(CCOc2ccc(N(Cc3ccc(-c4nnc(C(F)F)o4)cc3F)C(=O)N3CCS(=O)(=O)CC3)cc2)CC1 [Compound 21971, N-(4-(5-(difluoromethyl)-1,3,4-oxadiazol-2-yl)-2-fluorobenzyl)-N-(4-(2-(4-ethylpiperazin-1-yl)ethoxy)phenyl)thiomorpholine-4-carboxamide 1,1-dioxide]
HDAC6 selectivity (fold): 59 fold
IC50: 169 nM

O=C(N1CCOCC1)N(Cc1ccc(-c2nnc(C(F)(F)F)o2)cc1)c1ccccc1F [Compound 21428, N-(2-fluorophenyl)-N-(4-(5-(trifluoromethyl)-1,3,4-oxadiazol-2-yl)benzyl)morpholine-4-carboxamide]
HDAC6 selectivity (fold): 75 fold
IC50: 134 nM

COc1cccc(N(Cc2ccc(-c3nnc(C(F)F)o3)cn2)C(=O)N2CCN(C)CC2)c1 [Compound 21622, N-((5-(5-(difluoromethyl)-1,3,4-oxadiazol-2-yl)pyridin-2-yl)methyl)-N-(3-methoxyphenyl)-4-methylpiperazine-1-carboxamide]
HDAC6 selectivity (fold): 226 fold
IC50: 44 nM

O=C(N1CCS(=O)(=O)CC1)N(Cc1ccc(-c2nnc(C(F)F)o2)cc1F)c1ccc(OC2CCN(Cc3ccccc3)CC2)cc1 [Compound 21924, N-(4-((1-benzylpiperidin-4-yl)oxy)phenyl)-N-(4-(5-(difluoromethyl)-1,3,4-oxadiazol-2-yl)-2-fluorobenzyl)thiomorpholine-4-carboxamide 1,1-dioxide]
HDAC6 selectivity (fold): 47 fold
IC50: 213 nM

O=C(N1CCN(Cc2ccccc2)CC1)N(Cc1ccc(-c2nnc(C(F)(F)F)o2)cc1)c1ccccc1 [Compound 21344, 4-Benzyl-N-phenyl-N-(4-(5-(trifluoromethyl)-1,3,4-oxadiazol-2-yl)benzyl)piperazine-1-carboxamide]
HDAC6 selectivity (fold): 12 fold
IC50: 830 nM

CN1CC2(CCN(C(=O)N(Cc3ccc(-c4nnc(C(F)F)o4)cc3F)c3ccccc3)CC2)C1 [Compound 21496, N-(4-(5-(difluoromethyl)-1,3,4-oxadiazol-2-yl)-2-fluorobenzyl)-2-methyl-N-phenyl-2,7-diazaspiro[3.5]nonane-7-carboxamide]
HDAC6 selectivity (fold): 500 fold
IC50: 20 nM

CN(C)CCCN1CCN(CCNC(=O)N(Cc2ccc(-c3nnc(C(F)F)o3)cc2F)c2ccccc2)CC1 [Compound 22002, 1-(4-(5-(Difluoromethyl)-1,3,4-oxadiazol-2-yl)-2-fluorobenzyl)-3-(2-(4-(3-(dimethylamino)propyl)piperazin-1-yl)ethyl)-1-phenylurea]
HDAC6 selectivity (fold): 85 fold
IC50: 118 nM

COc1ccccc1N(Cc1ccc(-c2nnc(C(F)(F)F)o2)cc1F)C(=O)N1CCS(=O)(=O)CC1 [Compound 21479, N-(2-fluoro-4-(5-(trifluoromethyl)-1,3,4-oxadiazol-2-yl)benzyl)-N-(2-methoxyphenyl)thiomorpholine-4-carboxamide 1,1-dioxide]
HDAC6 selectivity (fold): 167 fold
IC50: 60 nM

CN1CCN(CCNC(=O)N(Cc2ccc(-c3nnc(C(F)F)o3)cc2F)c2ccccc2)CC1 [Compound 21993, 1-(4-(5-(Difluoromethyl)-1,3,4-oxadiazol-2-yl)-2-fluorobenzyl)-3-(2-(4-methylpiperazin-1-yl)ethyl)-1-phenylurea]
HDAC6 selectivity (fold): 117 fold
IC50: 86 nM
